Results as given in PubChem BioAssay (NCI).
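Grown in 96-well plates, cells were treated for 48 hours with each compound at five concentrations. Insufficient inhibition: endpoint recorded as highest concentration tested. Abbreviation: GI50, concentration required for 50% inhibition of growth. TGI marks complete inhibition of growth.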

Legend:
Test in all cases: NCI tumour cell line growth inhibition, 48 h
HS 578T breast = system: HS 578T breast
HOP-18 NSCLC = system: HOP-18 NSCLC
DLD-1 colon = system: DLD-1 colon
M19-MEL melanoma = system: M19-MEL melanoma
SNB-78 CNS = system: SNB-78 CNS
LXFL 529 NSCLC = system: LXFL 529 NSCLC
DMS 114 small cell lung = system: DMS 114 small cell lung
MDA-N = system: MDA-N
RXF-631 renal = system: RXF-631 renal

Compound | GI50 (HS 578T breast) | TGI (HS 578T breast) | TGI (HOP-18 NSCLC) | TGI (DLD-1 colon) | TGI (M19-MEL melanoma) | TGI (SNB-78 CNS) | TGI (LXFL 529 NSCLC) | TGI (DMS 114 small cell lung) | also measured
CCN(CC)CCN1CC(O)=C(c2nc(-c3ccc(Cl)cc3)cs2)C1=N | 1.5 µM | 3.59 µM | – | – | – | – | – | – | –
COc1ccc2c(c1)C=C([N+](=O)[O-])C(C1OC(C)(C)OC1C1COC(C)(C)O1)O2 (stereo unspecified) | – | > 100 µM | 42 µM | 3.15 µM | 3.31 µM | 11.8 µM | 13.8 µM | 8.55 µM | –
CN(C)CCNC(=O)c1cccc(C(=O)Nc2ccccc2)c1[N+](=O)[O-] | – | > 100 µM | – | – | – | – | – | – | TGI (MDA-N): > 100 µM
N.N.N.N.N.O=C([O-])c1nn[n-]n1.[Cl-].[Co+3] | – | – | > 100 µM | > 100 µM | – | > 100 µM | > 100 µM | – | GI50 (HOP-18 NSCLC): > 100 µM; GI50 (DLD-1 colon): > 100 µM; GI50 (SNB-78 CNS): > 100 µM; GI50 (LXFL 529 NSCLC): > 100 µM
CC(C)(C)OC(=O)Cc1ccc2c(ccn2Cc2ccccc2)c1 | – | – | > 100 µM | > 100 µM | > 100 µM | > 100 µM | > 100 µM | > 100 µM | TGI (RXF-631 renal): > 100 µM
COC(=O)C1=NC(=S)NC(c2ccccc2)C1c1nc2ccccc2s1 (stereo unspecified) | – | – | > 100 µM | > 100 µM | > 100 µM | > 100 µM | > 100 µM | > 100 µM | TGI (RXF-631 renal): > 100 µM
O=C(CCl)Nc1ccc(Cl)cc1 | 3.96 µM | 42.4 µM | – | – | – | – | – | – | –
COc1cc[nH]c1/C=C1\C(=O)Nc2ccccc21 | 5.91 µM | > 25 µM | – | – | – | – | – | – | –
COc1ccc(-c2cn3ccsc3n2)cc1 | – | – | > 100 µM | > 100 µM | > 100 µM | > 100 µM | > 100 µM | > 100 µM | –
Cc1ccc(N(C(=O)CC(=O)NN)C(=O)c2ccccc2Cl)cc1 | – | – | > 100 µM | > 100 µM | > 100 µM | > 100 µM | > 100 µM | > 100 µM | TGI (RXF-631 renal): > 100 µM
CC(C)=CCC/C(=C/CC/C(C)=C/CCc1ccoc1)C(=O)O | – | – | – | > 100 µM | > 100 µM | > 100 µM | > 100 µM | > 100 µM | –
COc1ccc(C(=O)c2cc(C)c(OC)c(C)c2)c(OC)c1N(C(=O)C(Cl)Cl)C(=O)C(Cl)Cl | 0.0277 µM | > 100 µM | – | – | – | – | – | – | –
Cc1cc(SCC(=O)c2ccccc2)nc2ccccc12 | – | 64.8 µM | – | – | – | – | – | – | –
Cc1noc(C)c1CCCOC1COc2ccccc2OCCOCCOc2ccccc2OC1 | – | – | > 100 µM | > 100 µM | > 100 µM | > 100 µM | > 100 µM | > 100 µM | –
COc1ccc(OC)c(/C=C/C(=O)N/N=C/c2ccc(Cl)cc2)c1 | 0.188 µM | > 100 µM | – | – | – | – | – | – | –
CCc1[nH]c(=O)nc(N)c1-c1ccc(N2CCCCC2)c([N+](=O)[O-])c1 | – | > 100 µM | – | – | – | – | – | – | TGI (MDA-N): > 100 µM
COC(=O)c1cc(Br)c(Br)n1C | – | – | > 100 µM | > 100 µM | > 100 µM | > 100 µM | > 100 µM | > 100 µM | TGI (RXF-631 renal): > 100 µM

Compound | GI50 (HS 578T breast) | TGI (HS 578T breast) | TGI (HOP-18 NSCLC) | TGI (DLD-1 colon) | TGI (M19-MEL melanoma) | TGI (SNB-78 CNS) | TGI (LXFL 529 NSCLC) | TGI (DMS 114 small cell lung) | also measured
CC(=O)[CH-]C(=O)c1ccccc1.CC(=O)[CH-]C(=O)c1ccccc1.O=C([O-])c1ccc([O-])cc1.O=C([O-])c1ccc([O-])cc1.[Ti+4] | – | – | > 100 µM | > 100 µM | – | – | > 100 µM | – | GI50 (HOP-18 NSCLC): 68.8 µM; GI50 (DLD-1 colon): > 100 µM; GI50 (LXFL 529 NSCLC): 31.1 µM
CC(=O)OC1Oc2ccccc2-c2oc(=O)c(-c3cc4ccc(N(C)C)cc4oc3=O)cc21 (stereo unspecified) | 4.56 µM | 26.1 µM | – | – | – | – | – | – | –
CN(C)P(=O)(/C(N)=N/Nc1ccc([N+](=O)[O-])cc1)N(C)C | – | – | – | > 100 µM | > 100 µM | > 100 µM | > 100 µM | > 100 µM | –
O=C(N/N=C/c1cccc(O)c1O)c1ccccc1 | 10.5 µM | > 100 µM | – | – | – | – | – | – | –
O=C(c1cccc(O)c1O)c1cn(Cc2ccc(F)cc2)c2cccc(O)c12 | 3.42 µM | 20.6 µM | – | – | – | – | – | – | –
CCOC(=O)CN=c1nc(SC)sc2c(C(=O)OCC)nc(Sc3ccccc3)n12 | – | – | > 100 µM | > 100 µM | > 100 µM | – | > 100 µM | > 100 µM | TGI (RXF-631 renal): > 100 µM
CCOC1=NC(=O)CC(c2ccccc2)S1 (stereo unspecified) | – | – | – | > 100 µM | > 100 µM | > 100 µM | > 100 µM | – | –
CC1CN1CC(O)C(O)CN1CC1C (stereo unspecified) | 11.3 µM | 57.4 µM | – | – | – | – | – | – | –
CCS(=O)(=O)c1ccc(OC)c(Nc2ncc(-c3cccc(OC)c3)o2)c1 | 5.48 µM | 17.6 µM | – | – | – | – | – | – | –
O=C(O)CP(=S)(S)c1ccccc1 (stereo unspecified) | – | – | – | > 100 µM | > 100 µM | > 100 µM | > 100 µM | > 100 µM | –
Cc1ccc(S(=O)(=O)n2c(-c3ccccc3)c(-c3ccccc3)c3ccccc32)cc1 | – | – | > 100 µM | > 100 µM | > 100 µM | – | > 100 µM | > 100 µM | –
COc1cc(C2=NN(C(C)=O)C(c3ccc(OC(C)=O)cc3OC(C)=O)O2)c(OC(C)=O)c2ccccc12 (stereo unspecified) | 13.1 µM | > 100 µM | – | – | – | – | – | – | –
Cc1cccc(NC(=O)C(=O)Cc2nc3ccccc3[nH]c2=O)c1C | – | – | > 100 µM | > 100 µM | > 100 µM | > 100 µM | > 100 µM | > 100 µM | –
COc1cc2oc(-c3ccc(O)cc3)cc(=O)c2c(OC)c1OC | – | > 100 µM | – | – | – | – | – | – | TGI (MDA-N): > 100 µM
O=C1c2ccccc2-c2c1c1ccccc1c(=O)n2Cc1ccccc1 | – | > 100 µM | – | – | – | – | – | – | TGI (MDA-N): > 100 µM
Cc1ccc(Nc2nc3c(s2)C(=O)c2ccccc2C3=O)c(C)c1 | – | – | 20.1 µM | 31.4 µM | 5.71 µM | 43.6 µM | 28.7 µM | 24.1 µM | –
CN(C)CCCn1c2c(c3ccccc3c1=O)C(=O)c1ccccc1-2 | 8.06 µM | 38 µM | – | – | – | – | – | – | –
